Laboratory results as given in ChEMBL document CHEMBL4699616, “Novel deoxyvasicinone and tetrahydro-beta-carboline hybrids as inhibitors of acetylcholinesterase and amyloid beta aggregation” (Bioorg Med Chem Lett, 2020).
The source made the active and inactive calls. No cut-off for these calls is given here.

Legend:
[1] = biological target: T1, Amyloid-beta precursor protein (Homo sapiens, UniProt P05067); assay: Inhibition of amyloid beta (1 to 42) (unknown origin) self aggregation at 20 uM incubated for 48 hrs by thioflavin-T fluorescence method relative to control
T1 sequence (P05067 whole entry): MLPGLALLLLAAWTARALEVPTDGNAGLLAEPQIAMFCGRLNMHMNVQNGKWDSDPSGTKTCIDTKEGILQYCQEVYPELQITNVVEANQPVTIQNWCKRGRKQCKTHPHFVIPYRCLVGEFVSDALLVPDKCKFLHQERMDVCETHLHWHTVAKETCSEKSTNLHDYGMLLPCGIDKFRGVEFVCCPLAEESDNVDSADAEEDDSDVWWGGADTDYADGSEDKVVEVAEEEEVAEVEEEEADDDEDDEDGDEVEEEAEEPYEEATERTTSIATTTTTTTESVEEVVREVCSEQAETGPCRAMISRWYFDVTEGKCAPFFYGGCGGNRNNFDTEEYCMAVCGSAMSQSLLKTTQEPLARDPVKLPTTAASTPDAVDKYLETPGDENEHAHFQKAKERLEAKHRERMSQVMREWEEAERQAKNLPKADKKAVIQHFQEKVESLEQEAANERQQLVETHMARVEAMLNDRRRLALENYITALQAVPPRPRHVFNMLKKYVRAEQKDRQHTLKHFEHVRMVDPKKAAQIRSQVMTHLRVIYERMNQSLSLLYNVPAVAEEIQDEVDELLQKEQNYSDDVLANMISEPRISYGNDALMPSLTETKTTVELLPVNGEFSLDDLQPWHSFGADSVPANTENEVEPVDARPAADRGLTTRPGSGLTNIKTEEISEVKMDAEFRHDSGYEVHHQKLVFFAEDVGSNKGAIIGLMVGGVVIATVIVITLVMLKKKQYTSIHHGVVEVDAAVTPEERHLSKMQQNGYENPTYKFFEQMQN

[2] = biological target: T2, Cholinesterase (Homo sapiens, UniProt P06276)
T2 sequence (P06276 whole entry): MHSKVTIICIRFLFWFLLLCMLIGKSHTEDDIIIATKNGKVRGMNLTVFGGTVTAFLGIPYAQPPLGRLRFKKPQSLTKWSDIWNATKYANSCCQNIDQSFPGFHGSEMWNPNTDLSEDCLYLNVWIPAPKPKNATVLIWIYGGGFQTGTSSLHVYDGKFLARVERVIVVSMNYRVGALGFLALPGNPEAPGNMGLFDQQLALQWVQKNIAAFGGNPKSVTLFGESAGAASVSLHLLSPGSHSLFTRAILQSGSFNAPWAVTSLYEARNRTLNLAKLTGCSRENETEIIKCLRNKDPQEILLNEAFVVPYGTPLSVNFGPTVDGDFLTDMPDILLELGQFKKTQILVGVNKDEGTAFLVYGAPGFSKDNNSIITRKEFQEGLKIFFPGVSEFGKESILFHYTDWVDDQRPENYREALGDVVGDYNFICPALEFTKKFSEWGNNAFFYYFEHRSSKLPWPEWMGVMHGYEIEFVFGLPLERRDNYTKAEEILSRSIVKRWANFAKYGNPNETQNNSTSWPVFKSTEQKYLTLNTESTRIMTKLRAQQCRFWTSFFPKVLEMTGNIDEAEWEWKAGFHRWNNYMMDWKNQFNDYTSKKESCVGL
Description: Inhibition of human serum BuChe by Ellman's method

[3] = biological target: T3, Acetylcholinesterase (Homo sapiens, UniProt P22303); assay: Inhibition of human erythrocytes AChE at 1 uM by Ellman's method relative to control; assay type: cell-based; conditions: Erythrocyte
T3 sequence (P22303 whole entry): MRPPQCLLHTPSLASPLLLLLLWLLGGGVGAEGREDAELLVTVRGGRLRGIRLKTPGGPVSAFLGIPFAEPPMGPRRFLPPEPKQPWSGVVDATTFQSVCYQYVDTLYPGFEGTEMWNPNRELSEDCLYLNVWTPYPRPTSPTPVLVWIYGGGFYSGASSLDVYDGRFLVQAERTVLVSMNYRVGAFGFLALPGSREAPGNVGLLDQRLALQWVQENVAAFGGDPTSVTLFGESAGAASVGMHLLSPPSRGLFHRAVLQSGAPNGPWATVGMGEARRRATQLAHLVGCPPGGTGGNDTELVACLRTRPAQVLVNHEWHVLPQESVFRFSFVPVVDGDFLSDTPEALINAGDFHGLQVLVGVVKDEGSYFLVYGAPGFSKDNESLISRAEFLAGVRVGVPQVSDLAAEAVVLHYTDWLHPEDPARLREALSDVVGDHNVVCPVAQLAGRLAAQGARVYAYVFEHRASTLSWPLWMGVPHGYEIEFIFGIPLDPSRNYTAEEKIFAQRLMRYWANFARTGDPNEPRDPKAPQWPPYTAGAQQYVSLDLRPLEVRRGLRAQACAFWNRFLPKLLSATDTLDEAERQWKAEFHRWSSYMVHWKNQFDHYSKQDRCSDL

[4] = biological target: T3, Acetylcholinesterase; assay: Inhibition of human erythrocytes AChE by Ellman's method; assay type: cell-based, Erythrocyte
[5] = biological target: T1, Amyloid-beta precursor protein
Description: Inhibition of amyloid beta (1 to 42) (unknown origin) self aggregation incubated for 48 hrs by thioflavin-T fluorescence method

[6] = biological target: T2, Cholinesterase; assay: Inhibition of human serum BuChe at 1 uM by Ellman's method relative to control; assay type: cell-free
[7] = system: SH-SY5Y; assay: Cytotoxicity against human SH-SY5Y cells assessed as effect on cell viability at 0.1 uM after 48 hrs by MTT assay; assay type: cell-based
[8] = Cytotoxicity against human SH-SY5Y cells assessed as cell viability at 10 uM after 48 hrs by MTT assay relative to control; assay type: cell-based; conditions: read-out: Activity
[9] = system: SH-SY5Y; assay: Neuroprotective activity against amyloid beta (1 to 42) induced cell damage in human SH-SY5Y cells assessed as increase in cell viability at 1 to 10 uM measured after 48 hrs; assay type: functional, cell-based; conditions: dose microM 1-10, time 48.0 hrs
[10] = biological target: T3, Acetylcholinesterase; assay: Inhibition of human erythrocytes AChE using acetylthiocholine iodide as substrate preincubated for 4.5 mins followed by substrate addition measured after 2.5 mins by Ellman's method; parameters: species or system Erythrocyte
[11] = system: SH-SY5Y; assay: Neuroprotective activity against amyloid beta (1 to 42) induced cell damage in human SH-SY5Y cells assessed as increase in cell viability at 0.1 uM measured after 48 hrs; assay type: functional, cell-based
[12] = system: SH-SY5Y; assay: Cytotoxicity against human SH-SY5Y cells assessed as effect on cell viability at 0.1 to 1 uM after 48 hrs by MTT assay; assay type: cell-based; conditions: dose 0.1-1 µM
[13] = biological target: T1, Amyloid-beta precursor protein; assay: Potency index, ratio of resveratrol IC50 to test compound IC50 for inhibition of amyloid beta (1 to 42) (unknown origin) self aggregation

Row | SMILES | inhibition [1] [%] | IC50 [2] [nM] | inhibition [3] [%] | IC50 [4] [nM] | IC50 [5] [nM] | also measured
1 | O=C(CN1CCC2c3ccccc3NC2C1)Nc1ccc(/C=C2\CCn3c2nc2ccccc2c3=O)cc1 (stereo not given) | 37.5 | 596 | 21.6 | – | – | –
2 | O=C(CCCN1CCC2c3ccccc3NC2C1)Oc1ccc(/C=C2\CCn3c2nc2ccccc2c3=O)cc1 (stereo not given) | 41.5 | 44.1 | – | 16.5 | – | –
3 | O=C(CCN1CCC2c3ccccc3NC2C1)Nc1ccc(/C=C2\CCn3c2nc2ccccc2c3=O)cc1 (stereo not given) | 31.6 | 726 | – | 9.75 | – | –
4 | O=C(CCCCCN1CCC2c3ccccc3NC2C1)Oc1ccc(/C=C2\CCn3c2nc2ccccc2c3=O)cc1 (stereo not given) | – | 507 | – | 10.7 | 15100 | –
5 | O=C(CCCCCN1CCC2c3ccccc3NC2C1)Nc1ccc(/C=C2\CCn3c2nc2ccccc2c3=O)cc1 (stereo not given) | – | 486 | – | 153 | 18300 | –
6 | O=C(O)C1NCCC2c3ccccc3NC12 (stereo not given) | 20.7 | – | 29.7 | – | – | inhibition [6]: 40.5%
7 | O=c1c2ccccc2nc2n1CCC2 | 20.7 | – | 29.7 | – | – | inhibition [6]: 40.5%
8 | O=C(CCN1CCC2c3ccccc3NC2C1)Oc1ccc(/C=C2\CCn3c2nc2ccccc2c3=O)cc1 (stereo not given) | – | 69.2 | – | 0.93 | 19700 | Activity [7]: Non-Toxic; viability at 48 h, 10 µM [8]: > 76%; Activity [9]: Active
9 | O=c1c2cc(OCCCN3CCCCC3)ccc2nc2n1CCC2 | – | – | – | – | – | IC50 [10]: 50 nM
10 | O=C(CN1CCC2c3ccccc3NC2C1)Oc1ccc(/C=C2\CCn3c2nc2ccccc2c3=O)cc1 (stereo not given) | 38.8 | 238 | – | 216 | – | –
11 | O=C(CCCCN1CCC2c3ccccc3NC2C1)Nc1ccc(/C=C2\CCn3c2nc2ccccc2c3=O)cc1 (stereo not given) | 27.9 | 32.8 | – | 98.3 | – | –
12 | O=C(CCCN1CCC2c3ccccc3NC2C1)Nc1ccc(/C=C2\CCn3c2nc2ccccc2c3=O)cc1 (stereo not given) | 21.2 | 215 | 49.9 | – | – | –
13 | O=C(CCCCN1CCC2c3ccccc3NC2C1)Oc1ccc(/C=C2\CCn3c2nc2ccccc2c3=O)cc1 (stereo not given) | – | 422 | – | 1.08 | 2050 | Activity [11]: Active; Activity [12]: Non-Toxic; viability at 48 h, 10 µM [8]: > 76%; Ratio IC50 [13]: 6; Activity [9]: Active
